Test results reported in patent US12171764B2, “Treatment of a disease of the gastrointestinal tract with a JAK or other kinase inhibitor” (BIORA THERAPEUTICS, INC., priority 2018, dated 2024).
Read-outs that look alike come from different tables or passages of the source.

How the values were obtained:
[1] = Example 10: tacrolimus blood/plasma pharmacokinetics, oral vs intra-cecal ingestible device delivery; format: in vivo, Yorkshire-Cross farm swine
Procedure: (§1) The primary objective of this study was to compare the tissue, plasma, rectal sample, and GI content pharmacokinetics of tacrolimus through oral versus intra-cecal ingestible device delivery in normal Yorkshire-Cross farm swine.
(§2) No further randomization procedure was employed.
Animals in Group 1 received an ingestible device containing 0.8 mL of vehicle solution (80% alcohol, 20% HCO-60). Animals in Group 2 received orally […] liquid formulation of tacrolimus at 4 mg/0.8 mL per animal (Prograf: 5 mg/mL). Animals in Group 3 received intra-cecally an ingestible device containing tacrolimus at 1 mg in 0.8 mL per ingestible device. Animals in Group 4 received intra-cecally an ingestible device containing tacrolimus at 2 mg in 0.8 mL per ingestible device. Animals in Group 5 received intra-cecally an ingestible device containing tacrolimus at 4 mg in 0.8 mL per ingestible device. To control for potential confounding effects of the surgery, all groups fast on Day −11 at least 24 hr before being subjected to anesthesia followed by surgical placements of a cecal port by a veterinary surgeon at Day −10. All animals were fasted for at least 12 hr prior to dosing on Day 1. Animals were dosed via either intra-cecal dosing (IC) or oral dosing (PO) at Day 1 (between 6-8 p.m.). All animals resumed feeding at approximately 4 hours after dose (11-12 p.m. after dosing).
Approximately 200˜400 mg of rectal content were collected, if available, with a fecal swab (Copan Diagnostics Nylon Flocked Dry Swabs, 502CS01). The fecal swab was pre-weighed and weighed after collection in the collection tube (Sterile Tube and Cap No Media, PFPM913S), and the sample weight was recorded. The fecal swab was broken via the breakpoint, and was stored in the collection tube, and immediately frozen at −70° C. […] Immediately following euthanasia, tissue was collected.
[…] Plasma, rectal content sample, tissue collection, GI content collection and related procedures/storage/shipments was the same as those employed in Group 1.
Group 3 animals were administered a single intra-cecal ingestible device containing tacrolimus at 1-mg/0.8 mL (0.02 mg/kg) (in the vehicle solution) on Day 1 by a veterinary surgeon. […] All samples were analyzed for tacrolimus.
Group 4 animals were administered a single intra-cecal ingestible device of tacrolimus at 2 mg/0.8 mL (0.04 mg/kg) (in sterile vehicle solution) on Day 1 by a veterinary surgeon. […] All samples were analyzed for tacrolimus.
Group 5 animals are administered a single intra-cecal ingestible device containing tacrolimus at 4 mg/0.8 mL (0.08 mg/kg) (in the vehicle solution) on Day 1 by a veterinary surgeon. […] All samples were analyzed for tacrolimus. […]

[2] = Example 10: tacrolimus in GI tissue, luminal content and rectal content, oral vs intra-cecal ingestible device delivery; format: in vivo, Yorkshire-Cross farm swine; conditions: FIG. 92
Procedure: as §1
Animals in Group 1 received an ingestible device containing 0.8 mL of vehicle solution (80% alcohol, 20% HCO-60). Animals in Group 2 received orally […] liquid formulation of tacrolimus at 4 mg/0.8 mL per animal (Prograf: 5 mg/mL). Animals in Group 3 received intra-cecally an ingestible device containing tacrolimus at 1 mg in 0.8 mL per ingestible device. […]
Approximately 200˜400 mg of rectal content were collected, if available, with a fecal swab (Copan Diagnostics Nylon Flocked Dry Swabs, 502CS01). The fecal swab was pre-weighed and weighed after collection in the collection tube (Sterile Tube and Cap No Media, PFPM913S), and the sample weight was recorded. […]
For tissue necropsy, small intestine fluid and cecal fluid were collected separately from all the animals into two separate square plastic bottles, and stored at −20° C. The length and diameter of the cecum and the colon was measured from one animal in each group and recorded for reference. […] All samples were weighed, and the tissue sample weights were recorded. […] Around 3 grams of the total punched sample were collected into a pre-weighed 15-mL conical tube, and the tissue weight was recorded. […]

[3] = Example 13: tacrolimus blood pharmacokinetics, oral vs intra-cecal administration; format: in vivo, Yorkshire-Cross farm swine; conditions: swine
Excerpt: as §2

[4] = system: IL-6, GM-CSF, IL-15, IL-2, IL-12, IL-13, TNF-α, and INF-γ; assay: Tofacitinib pharmacodynamics: JAK/STAT pathway cytokines in plasma and colon tissue by ELISA in DSS-induced colitis mice; format: in vivo, male C57BL/6 mice
[5] = animals treated IC (Groups 5-6); FIG. 110
Procedure: Briefly, samples were analyzed by LC-MS/MS against matrix-matched standard curves.

[6] = C57BL/6, mouse, in vivo, po, 15 mg/kg
[7] = C57BL/6, mouse, in vivo, 10 mg/kg

C=CC[C@@H]1/C=C(\C)C[C@H](C)C[C@H](OC)[C@H]2O[C@@](O)(C(=O)C(=O)N3CCCC[C@H]3C(=O)O[C@H](/C(C)=C/[C@@H]3CC[C@@H](O)[C@H](OC)C3)[C@H](C)[C@@H](O)CC1=O)[C@H](C)C[C@@H]2OC [tacrolimus]
Tmax ([1]; Route IC, Dose 0.02 (mg · kg)): 1 | Cmax ([1]; Route IC, Dose 0.04 (mg · kg)): 9.197 ± 3.30 ng/mL | AUC 0-12 hr ([1]; Route PO, Dose 0.09 (mg · kg)): 16.83 ± 3.641 ng·h/mL | Tmax ([1]; Route PO, Dose 0.09 (mg · kg)): 1 | rectal content concentration at 12 hours post-treatment ([2]; IC capsule groups): higher rectal content concentration | rectal content concentration at 12 hours post-treatment ([2]; PO group): no detectable level | Trough (12 hr) ([3]; IC 0.02 mg/kg (Group 3)): 0.746 ng/mL | Cmax ([3]; IC 0.04 mg/kg): 9.197 ± 3.30 ng/mL | Trough (12 hr) ([3]; IC 0.04 mg/kg (Group 4)): 1.96 ng/mL | Trough (12 hr) ([3]; IC 0.09 mg/kg (Group 5)): 4.35 ng/mL | Cmax ([3]; PO 0.09 mg/kg): 3.53 ± 3.84 ng/mL | Trough (12 hr) ([3]; PO 0.09 mg/kg (Group 2), 0.09 mg/kg): 0.568 ng/mL

C[C@@H]1CCN(C(=O)CC#N)C[C@@H]1N(C)c1ncnc2[nH]ccc12.O=C(O)CC(O)(CC(=O)O)C(=O)O [tofacitinib citrate]
IL-6 expression in plasma ([4]; PO or IC administration, 1 h and 3 h post-treatment (data not shown)): inhibition of IL-6 expression was observed | IL-6 expression in colon tissue ([4]; all IC treated groups and the high dose PO group (45 mg/kg), FIG. 112B): inhibition of IL-6 expression was sustained through 24 h post-dose | IL-6 expression in colon tissue ([4]; low dose PO group (15 mg/kg) by 12 h post-dose): Recovery from IL-6 inhibition was observed | blood exposure [5]: limited blood exposure

C[C@@H]1CCN(C(=O)CC#N)C[C@@H]1N(C)c1ncnc2[nH]ccc12 [tofacitinib, 3-[(3R,4R)-4-methyl-3-[methyl(7H-pyrrolo[2,3-d]pyrimidin-4-yl)amino]piperidin-1-yl]-3-oxopropanenitrile]
GM-CSF levels in plasma or colon tissue ([4]; IC vs PO treatment groups (data not shown)): nor was there a significant difference in GM-CSF levels | T1/2 [6]: 2.53 h | T1/2 [7]: 2.16 h
